Marks after values point to notes of the source that are not given here.
Experiments:
Aedes aegypti = assay: K & D module mosquito anti-biting (repellent) bioassay; assay type: in vivo
Protocol: Insects: Ae. aegypti(L.) (red eye Liverpool strain) and An. stephensi Liston used in the study were from colonies maintained at the Walter Reed Army Institute of Research, Silver Spring, Md. […] Adults were maintained in a photoperiod of 12:12 (L:D) h at 27° C. and 80% RH with cotton pads moistened with 10% aqueous sucrose solution. Mated females were 5-15 d old when they were used in bioassays. Ae. aegypti females had access only to water 24 h and neither food nor water for another 24 h before testing. An. stephensi females were provided with water alone 24 h before testing.
Routinely, a six-celled K & D module containing five mosquitoes/cell was positioned over cloth treatments covering the six blood-membrane wells, and trap doors of the K&D modules were opened to expose the treatments to the sets of mosquitoes. After a 3 minute exposure, the number of mosquitoes biting through cloth treatments in each cell was recorded and mosquitoes were prodded back into the cells. […] Experiments were replicated 12, 18, 32, or 56 times. Thus, 60, 90, 160. or 280 mosquitoes were tested against each treatment depending on the experiment, and the proportion of mosquitoes not biting for each treatment was calculated. For each experiment, conducted in different time periods, logistic regression was used to make two sets of one degree-of-freedom contrasts (t-tests): treatments vs. control and treatments vs. SS220 for anti-biting activity within each experiment. The level of significance was set at P=0.05. In all, we conducted 8 biological experiments, and all experiments used Ae. aegypti as the test mosquito with exception of Experiment 7 which used An. stephensi.
Each experiment was replicated 18 times.
Experiments 3, 4, and 5: In each of these experiments, chromatographic fractions of essential oil at their respective percentage compositions of 100 μg essential oil/cm^2 cloth, 100 μg unfractionated essential oil/cm^2 cloth, 25 nmol SS-220/cm^2 cloth and control were compared for mosquito anti-biting activity. Each experiment was replicated 18 times.
Experiments 6 and 7: These experiments compared the anti-biting activities of SS-220, and plant-isolated callicarpenal, humulene epoxide II, intermedeol and spathulenol at 25 nmol compound/cm^2 cloth versus control against Ae. aegypti and An. stephensi, respectively. Experiment 6 was replicated 32 times and 7 had 56 replicates
The percentage composition of the mixture was a normalized percentage of active components in C. japonica essential oil based upon GC-MS analysis total ion Area % analysis based on largest peaks. Other treatments in the experiment were SS220, callicarpenal, intermedeol, and spathulenol each at 25 nmol/cm^2 cloth versus control.

S. invicta = assay: Two-choice digging bioassay, head-to-head against octanoic acid; assay type: in vivo, Solenopsis invicta; settings: 25.00 ppm; both S. invicta colonies; FIGS. 3 and 4
Protocol: (§1) The repellency of the two terpenoids, callicarpenal and intermedeol, against workers of red imported fire ants, Solenopsis invicta Buren, black imported fire ants, Solenopsis rickeri Forel, and a hybrid of these two species was evaluated using multiple-choice digging bioassays (Tables 9 & 10). […] Callicarpenal and intermedeol were compared with octanoic acid, a known fire ant repellant, at the 25.00 ppm level using two-choice digging bioassays (FIGS. 3 and 4).
(§2) Head-to-head comparison on repellency of callicarpenal and intermedeol against octanoic acid: The bioassay apparatus was similar as described above, except a smaller Petri dish (8.7×2.3 cm) was used and only two choices were presented: one was sand treated with callicarpenal or intermedeol and the other with octanoic acid. Two choices were opposite each other across the center of the Petri dish and each was 3.0 cm away from the center. All compounds were tested at a 25.00 ppm level. Sand preparation was similar as described above. Ants from the same colonies as above were used in this experiment. There were five replications for each pair of comparisons. A paired t-test (critical P-value=0.05) was used to compare the mean amount of sand removed between two tubes.

S. richteri = assay: as above; assay type: in vivo, Solenopsis richteri; settings: 25.00 ppm; both S. richteri colonies; FIGS. 3 and 4
Protocol: as §1, §2

[1] = system: hybrid (S. invicta×S. richteri); assay: as above; assay type: in vivo; settings: 25.00 ppm
Protocol: as §1, §2

[2] = Exp. 6, 25 nmol compound/cm^2 cloth, 32 replicates
[3] = Exp. 8, 25 nmol/cm^2 cloth, 12 replicates
[4] = Experiment 6, 25 nmol compound/cm^2 cloth
[5] = Experiment 8, 25 nmol/cm^2 cloth

SMILES | Proportion Not Biting (Aedes aegypti; [2]) | Proportion Not Biting (Aedes aegypti; [3]) | repellent activity (in words) (Aedes aegypti; [4]) | repellent activity (in words) (Aedes aegypti; [5]) | Proportion Not Biting (Aedes aegypti; Table 7, Example 2, synthetic compounds, dose not given) | Proportion Not Biting (Aedes aegypti; Table 8, Example 3, synthetic compounds, dose not given) | repellency compared with octanoic acid (in words) (S. invicta) | repellency compared with octanoic acid (in words) (S. richteri) | repellency compared with octanoic acid (in words) ([1]; one hybrid colony, FIG. 3) | repellency compared with octanoic acid (in words) ([1]; the other hybrid colony, FIG. 3) | repellency compared with octanoic acid (in words) ([1]; all hybrid colonies, FIG. 4)
CC1=CCC[C@@H]2[C@@](C)(CC=O)[C@H](C)CC[C@@]12C [callicarpenal, 13,14,15,16-tetranorclerod-3-en-12-al] | 0.70^b | 0.73^a | significant activity | high repellent activity that was comparable to SS220 | 0.70^b | 0.73^b | no significant difference | significantly greater repellency than octanoic acid | significantly greater repellency than octanoic acid | no significant difference | 
C=C(C)C1CCC2(C)CCCC(C)(O)C2C1 [intermedeol, (4S,5S,7R,10S)-eudesm-11-en-4-ol] | 0.70^b | 0.62^c | significant activity | high repellent activity that was comparable to SS220 |  |  | significantly greater repellency than octanoic acid | significantly greater repellency than octanoic acid |  |  | significantly greater repellency than octanoic acid

— patent US20100190849A1, “Novel Clerodanes and Methods for Repelling Arthropods” (priority 2006, published 2010)
